Molecules are shown by their SMILES.

The nature of data set [1]: Brain permeability of rats (Kp-unbound). Type of data set: in vivo. The settings on record: both sexes, rat, not told, po; SD rats, 10 mg/kg intragastrically, 0.5 h after administration; read-out: Kp-unbound (blood-brain permeability index). How it is done:
The activity of the compounds of the present invention on the brain permeability of rats was determined by the following experimental method:
Four SD rats (half male and half female) were maintained in a 12 hours light/12 hours dark cycle, in a constant temperature of 24±3° C. and a humidity of 50-60%, and free access to food and water. The compounds were administered intragastrically to the rats after fasting overnight. The administration dosage was 10 mg/kg. The administration group was sacrificed after blood collection at 0.5 h to 2 h after administration (blood volume: 0.5 ml). The blood sample was stored in heparinized tubes, and centrifuged for 10 minutes at 3500 rpm to separate the plasma, which was marked as plasma 1 and stored at […]. The animal was decapitated after sacrificing, and the brain tissue was collected. The residual blood in the brain tissue was sucked with a filter paper, which was marked as brain tissue 1, and stored at 0° C. ten minutes later. Another three animals were treated by the same method as that of administration group to obtain blank plasma and brain tissue 2.
The drug compounds were diluted to 50 mM with DMSO to obtain a stock solution I. An appropriate amount of stock solution I was diluted with methanol to obtain a diluted stock solution II (200 μM). 10 μl of stock solution II was moved to a 1.5 ml Eppendorf tube, and then added with 990 μl of blank plasma, and mixed well to obtain 2 μM of plasma sample 2 (concentration of DMSO≤0.2%), which was used for the determination of plasma protein binding rate at this concentration. […]
The equilibrium dialysis tube of RED Device Inserts was inserted into a 96-well plate. […] The chromatographic peak area ratios of the total drug (plasma chamber) and the free drug (buffer chamber) to the internal standard were determined directly by the LC/MS/MS method established above respectively, and the free percent (fu plasma %) was calculated.
Brain tissue protein binding equilibrium dialysis process: the blank brain tissue 2 was formulated into a blank brain homogenate with PBS (pH 7.4) according to a dilution factor of 11, and added with compound to formulate a 2 μM brain homogenate. Other procedures were the same with that of plasma protein binding, the chromatographic peak area ratios of the total drug (brain homo chamber) and the free drug (buffer chamber) to the internal standard were determined by the established LC/MS/MS method respectively, and the free percent (fu brain hom %) was calculated.
1) The drug concentrations in plasma 1 and brain tissue 1 of rats 0.5 h after administration were determined by the established LC/MS/MS method respectively, which were the total concentration (Ctotal, p and Ctotal, b); […]

The target in a further data set is human OTR (Homo sapiens, UniProt P30559). Kind of data set: Inhibition activity on human OTR (Fluo-4 calcium assay, HEK293/human OTR stably transfected cells). In kind it is cell-based. The note with it: oxytocin 3 nM. In outline: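 HEK293 cells stably expressing human OTR, loaded with Fluo-4 for 30 min at 37 °C, were preincubated 10 min at room temperature with compound (stocks 10^1–10^6 nM). Oxytocin (3 nM as added) then triggered calcium signal, read immediately at 494/516; IC50 fitted from fluorescence versus concentration.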

A short description of data set [2]: Pharmacokinetics assay in rats after intragastrical administration. Type of data set: in vivo, SD rats. The settings on record: Sprague-Dawley, rat, plasma, po, 30 mg/kg, intragastric, male rats. How it is done:
Male SD rats were used as test animals. The drug concentration in plasma at different time points was determined by LC/MS/MS method after intragastrical administration of the compounds of Examples 2, 17, 34, 37, 38, 39 and 43 to rats. The pharmacokinetic behavior of the compounds of the present invention was studied and evaluated in rats.
Twenty-one healthy adult male Sprague-Dawley (SD) rats were purchased from Shanghai Jiesijie Laboratory Animal Co., LTD, with Certificate No.: SCXK (Shanghai) 2013-0006, and equally divided into 7 groups (3 rats per group).
A certain amount of the test compound was weighed, and added with 2.5% by volume of DMSO and 97.5% by volume of 10% solutol HS-15 to formulate a […] colorless, clear and transparent solution.
After an overnight fast, SD rats were administered intragastrically the test compounds at an administration dosage of 30.0 mg/kg and an administration volume of 10.0 mL/kg.
The rats were intragastrically administered the compounds of Examples 2, 17, 34, 37, 38, 39 and 43. 0.2 mL of blood was taken from the orbital sinus before administration and at 0.5, 1.0, 2.0, 4.0, 6.0, 8.0, 11.0 and 24.0 hours after administration. The samples were stored in heparinized tubes, and centrifuged for 10 minutes at 4° C. at 3500 rpm to separate the plasma. The plasma samples were stored at −20° C. The rats were fed 2 hours after administration.
The content of the test compounds in the plasma of rats after intragastrical administration of the test compounds at different concentrations was determined: 50 μL of rat plasma at each time after administration was taken, added with 50 μL of the internal standard solution of camptothecin (100 ng/mL) and 150 μL of acetonitrile, vortex-mixed for 5 minutes, and centrifuged for 10 minutes (4000 rpm). 3 μL of the supernatant was taken from the plasma samples for LC/MS/MS analysis.

Data set [3] deals with oxytocin receptor (Rattus norvegicus (Rat), UniProt P70536). The settings on record: intraventricular and intrathecal injection; cited from earlier work.
The target of data set [4] is T1, oxytocin receptor (Homo sapiens (Human), UniProt P30559). The note with it: cited from earlier work.
In data set [5] the target is T1, oxytocin receptor. The settings on record: orally 400 mg or 800 mg, patient with prospermia, phase II; cited from earlier work.

T1 sequence (P30559 whole entry): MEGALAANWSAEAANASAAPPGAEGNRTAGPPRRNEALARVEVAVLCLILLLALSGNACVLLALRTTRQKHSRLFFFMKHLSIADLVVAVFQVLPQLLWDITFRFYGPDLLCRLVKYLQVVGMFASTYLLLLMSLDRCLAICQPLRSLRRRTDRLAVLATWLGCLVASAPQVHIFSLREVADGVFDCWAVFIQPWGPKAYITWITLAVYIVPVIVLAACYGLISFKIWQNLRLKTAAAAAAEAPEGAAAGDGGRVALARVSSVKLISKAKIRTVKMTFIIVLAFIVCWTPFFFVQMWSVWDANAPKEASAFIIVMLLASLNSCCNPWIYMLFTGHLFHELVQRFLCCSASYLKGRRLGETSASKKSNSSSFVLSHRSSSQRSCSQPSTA
Sequence of oxytocin receptor (Rattus norvegicus (Rat), UniProt P70536) (P70536 whole entry): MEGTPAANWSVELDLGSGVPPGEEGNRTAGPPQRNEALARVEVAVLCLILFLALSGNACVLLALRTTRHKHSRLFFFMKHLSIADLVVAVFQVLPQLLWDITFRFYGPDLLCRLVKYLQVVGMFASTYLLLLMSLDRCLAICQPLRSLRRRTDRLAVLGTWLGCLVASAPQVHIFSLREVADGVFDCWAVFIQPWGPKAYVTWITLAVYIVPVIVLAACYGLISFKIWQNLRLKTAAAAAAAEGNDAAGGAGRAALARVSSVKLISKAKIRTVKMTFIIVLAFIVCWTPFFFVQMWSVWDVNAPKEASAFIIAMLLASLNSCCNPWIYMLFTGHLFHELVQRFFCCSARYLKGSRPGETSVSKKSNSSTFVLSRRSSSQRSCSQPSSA

What is called Kp is the ratio of the level in a tissue or fluid to that in plasma or blood. With `COCc1nnc(N2CC(Oc3ccc(F)cc3Cl)C2)n1-c1ccc(OC)nc1` [5-(3-(3-(2-Chloro-4-fluorophenoxy)azetidin-1-yl)-5-(methoxymethyl)-4H-1,2,4-triazol-4-yl)-2-methoxypyridine, reference compound], in data set [1], the Kp at 0.5 h was found to be 0.064.

What is called IC50 is the concentration that inhibits the measured activity by half. The term AUC denotes the area under the concentration-time curve, a measure of exposure. As usually defined, the MRT is a mean duration of stay, worked out from the concentration-time curve. Consider `COc1ccc(-n2c(COC(F)F)nnc2N2CC(c3cccc4cc(F)ccc34)C2)cn1` [Example 38, 5-(3-((Difluoromethoxy)methyl)-5-(3-(6-fluoronaphthalen-1-yl)azetidin-1-yl)-4H-1,2,4-triazol-4-yl)-2-methoxypyridine], for which the IC50 on human OTR was determined as 2 nM. For the same compound, in data set [1], the partition ratio (Kp) at 0.5 h came out at 0.175. The Vd/F in data set [2] (read-out: Apparent distribution volume Vz/F) was determined as 27.8 ± 22.8 L/kg. Moreover, the AUC in data set [2] (read-out: Area under curve AUC) came to 5630 ± 3010 ng·h/mL. In data set [2] (read-out: Clearance CLz/F), the CL/F is 104 ± 44 mL/min/kg. Moreover, the half-life in data set [2] (read-out: Half-life T1/2 (converted)) is 170 ± 114 min. In addition, the Cmax in data set [2] (read-out: Plasma concentration Cmax) is 1060 ± 270 ng/mL. In addition, the mean residence time MRT in data set [2] (read-out: Residence time MRT) turned out to be 4.19 ± 1.25 h.

Regarding `CC[C@H](C)[C@@H]1C(=O)N[C@H](C2Cc3ccccc3C2)C(=O)N1[C@@H](C(=O)N1CCOCC1)c1ccc(C)nc1C` [GSK557296], the “Ejaculation behavior of rats” value on oxytocin receptor [3] is listed as “can effectively inhibit the ejaculation behavior of rats only when being administered at specific central sites”. Moreover, the “Efficacy after oral administration in phase II clinical trials” value on oxytocin receptor [4] was “did not show corresponding efficacy”.

Turning to `COCc1nnc(N2CC(Oc3ccc(F)cc3Cl)C2)n1-c1ccc(OC)nc1` [IX-01], on oxytocin receptor [5], the Vaginal ejaculation latency result is given as “can significantly prolong the vaginal ejaculation latency of the patient”.

The values are drawn from patent publication US10889569B2, “Condensed ring group azacyclobutyl triazole derivative, preparation method therefor and use thereof in medicine” (Jiangsu Hengrui Medicine Co., Ltd., priority 2016, dated 2021).
